{"source": "ChEMBL document CHEMBL2010739", "about": "“Antiproliferative activity of trans-avicennol from Zanthoxylum chiloperone var. angustifolium against human cancer stem cells” (J Nat Prod, 2012)", "key": {"[1]": {"test": "Antiproliferative activity against human NSC-24 cells at 34.2 ug/ml to 100 uM by WST-1 assay", "assay_type": "cell-based"}, "[2]": {"biological_target": "Indoleamine 2,3-dioxygenase 1 (Homo sapiens, UniProt P14902)", "sequence (P14902 whole entry)": "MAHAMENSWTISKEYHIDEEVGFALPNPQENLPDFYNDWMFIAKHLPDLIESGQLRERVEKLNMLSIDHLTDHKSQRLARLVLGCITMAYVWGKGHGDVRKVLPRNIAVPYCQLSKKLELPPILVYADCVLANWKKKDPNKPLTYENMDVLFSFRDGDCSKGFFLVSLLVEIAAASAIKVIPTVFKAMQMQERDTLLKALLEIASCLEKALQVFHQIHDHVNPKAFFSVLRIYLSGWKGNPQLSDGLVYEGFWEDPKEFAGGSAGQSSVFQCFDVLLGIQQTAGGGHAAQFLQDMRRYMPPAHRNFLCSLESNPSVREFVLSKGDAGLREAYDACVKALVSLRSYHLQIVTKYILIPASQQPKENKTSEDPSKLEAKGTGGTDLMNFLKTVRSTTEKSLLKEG", "test": "Competitive inhibition of human indoleamine 2,3-dioxygenase assessed as conversion of N-formylkynurenine to kynurenine after 2 hrs by spectrophotometrical analysis"}, "TG1": {"test_system": "TG1", "test": "Induction of Erk phosphorylation in human TG1 cells at 100 uM after 30 mins by Western blot analysis", "assay_type": "cell-based"}, "[3]": {"test": "Antiproliferative activity against human TG1 cells at 34.2 ug/ml by WST-1 assay", "assay_type": "functional"}, "[4]": {"test": "Antiproliferative activity against human TG10 cells at 34.2 ug/ml by WST-1 assay", "assay_type": "functional"}, "NSC-24": {"test_system": "NSC-24", "test": "Inhibition of Erk phosphorylation in human NSC-24 cells at 100 uM after 30 mins by Western blot analysis", "assay_type": "cell-based"}}, "note": "Active and inactive are the calls of the source. The rule behind the calls is not given here."}
{"smiles": "COc1c2c(c3ccc(=O)oc3c1/C=C/C(C)(C)O)OC(C)(C)C=C2", "note": "[AVICENNOL]", "values": [{"measurement": "Activity", "setting": "[1]", "result": "Non-toxic"}, {"measurement": "Ki", "setting": "[2]", "result": 635, "unit": "µM"}, {"measurement": "Activity", "setting": "TG1", "result": "Active"}, {"measurement": "Activity", "setting": "[3]", "result": 35, "unit": "%"}, {"measurement": "Activity", "setting": "[4]", "result": 40, "unit": "%"}, {"measurement": "inhibition", "setting": "NSC-24", "result": "Active"}]}
